Assay results published in paper PMC5656594 (Scientific Reports, 2017).

Experiments:
[1] = target: T1, IN^PFV-viral DNA interaction (Human spumaretrovirus, UniProt P14350); assay: IN-viral DNA interaction by steady-state fluorescence anisotropy of Fl-DNA with increasing drug concentrations; format: binding, prototype foamy virus (PFV); conditions: 400 nM IN^PFV, 4 nM Fl-PFV^CAAT, 10 mM Mg2+, up to 20 µM drug; means INSTI did not prevent IN-DNA interactions
T1 construct: The full-length wt IN^PFV, the three single mutants of the catalytic triad; His; made in house; host or cells: E. coli BL21-CodonPlus (DE3)-RIPL
Protocol: Their incapability to prevent or disrupt IN-viral DNA complexes was consistently observed over the whole concentration range, regardless of the INSTI tested (Supplementary Fig. S7).
IN^PFV binding to DNA was measured by fluorescence anisotropy on a Beacon Instrument (Panvera, Madison, WI, USA) as previously described[25],[51], using a double-stranded 21-mer Fl-labeled DNA mimicking the PFV U5 LTR end also referred to as DNA#1 in Table 1 (labeled at the 5′-end of the reactive strand). IN binding to Fl-PFV^CAAT (or Fl-DNA#1) was compared to the binding to other DNA sequences (Fl-DNA#8 #9 #13). DNA annealing was obtained by mixing equimolar amounts of complementary strands in buffer A, heating to 85 °C for 5 min and slow cooling to 25 °C. DNA-binding experiments were performed at 25 °C in buffer A.
Figure S7. Differential effect of INSTI and INBI compounds on the INPFV-viral DNA interaction.
The formation of IN-DNA complexes was measured by steady-state fluorescence anisotropy using 400 nM INPFV and 4 nM Fl-PFVCAAT (also named Fl-DNA#1) in the presence of 10 mM Mg2+ and […]
In each plot, the starting r value (≈ 0.20) corresponds to the typical value found at saturating concentrations of IN (see Fig. S6).
The INBI compound FZ41, a member of the styrylquinoline family of inhibitors, was used as a control […]
show mean ± SD values from two independent experiments. […]

DNA alone (PFV^CAAT) = assay: DTG fluorescence enhancement in the presence of DNA alone; format: binding, prototype foamy virus (PFV); conditions: 1 mM Mg2+
Protocol: The three other conditions (i→iii) led to superimposable spectra. To note, the presence of IN/DNA complexes accounts for light scattering on the blue side of the spectrum.
All experiments were performed in the presence of 1 mM Mg^2+ (see Supplementary Fig. S4 for [Mg^2+] = 10 mM). λex = 345 nm and PMT = 980 V (Δλex = Δλem = 5 nm). […] Contributions of Raman and Rayleigh scattering were eliminated in the inset spectrum: (viii) = (iv)–(vii) where (vii) represents the proper spectrum of Mg^2+-DTG in the context of the binary IN-DNA complex. […] [Mg^2+] = 1 mM. Inset: fluorescence intensity (375–385 nm) as a function of (IN + DNA). The arrows indicate the intensity level after addition of 500 mM NaCl. Emission spectra are representative of 3 independent experiments for each condition of (IN + DNA). […] (E) Measurement of the binary IN-DNA complex formation. The formation of binary complexes was performed by monitoring the fluorescence anisotropy (r) of DNA (Fl-PFV^CAAT) under similar experimental conditions of the DTG-binding assay (panels C-D). Top, varying stoichiometric concentrations of IN and DNA were mixed and the r parameter was monitored. […]
Fluorescence excitation and emission spectra of INSTIs were recorded on a Eclipse (Varian) spectrofluorimeter equipped with two polarizers for anisotropy measurements and a thermostated cell holder, using 80 µl solutions placed in micro cells (Hellma). […]

[2] = target: T2, PFV IN complexed with various DNA sequences (Human spumaretrovirus, UniProt P14350); assay: DTG binding to IN complexed with various DNA sequences, fluorescence anisotropy procedure; design: species or system prototype foamy virus (PFV); conditions: normalized by DNA#1, [IN]=[DNA]=1.8 μM, [DTG]=0.6 μM, 10 mM Mg2+
T2 construct: The full-length wt IN^PFV, the three single mutants of the catalytic triad; His; made in house; host or cells: E. coli BL21-CodonPlus (DE3)-RIPL
Protocol: The binary complex concentration was measured as explained in Fig. 2E. […] This percentage was then plotted against the concentration of the binary complex (F). […] All graphs show representative data of three (panels A and B) or two (panels C–F) independent experiments.
(§1) Fluorescence excitation and emission spectra of INSTIs were recorded on a Eclipse (Varian) spectrofluorimeter equipped with two polarizers for anisotropy measurements and a thermostated cell holder, using 80 µl solutions placed in micro cells (Hellma). Drug, IN and DNA concentrations, excitation/emission slit settings as well as the photomultiplier tube (PMT) voltage are specified in figure legends. The intensity value was corrected from the inner filter effect. The steady-state fluorescence anisotropy was calculated using: r = (IVV–G x IVH)/(IVV + 2GxIVH) where IVV and IVH correspond to vertical and horizontal components, respectively, when the sample is excited with vertically polarized light. G represents the correction factor for the difference in the monochromator transmission between // and ⊥ polarized components: G = IHV/IHH. All experiments were performed at 25 °C in buffer A: 20 mM Tris pH 7.2, 50 mM NaCl, 1 mM DTT and 10% (v/v) DMSO.

S217K IN^PFV-DNA complex = target: T3, S217K IN^PFV-DNA complex (Human spumaretrovirus, UniProt P14350, G968K/S969G); assay: Fluorescence enhancement DTG-binding assay, S217K mutant; design: species or system prototype foamy virus (PFV); conditions: DTG 0.3 μM, 1 mM Mg2+
T3 construct: The pET-IN-PFV plasmid containing the full-length IN gene was used for mutagenesis; His; made in house; host or cells: E. coli BL21-CodonPlus (DE3)-RIPL
Protocol: The fluorescence intensity was monitored as a function of (IN + DNA) and plotted as a function of the binary IN-DNA complex concentration (measured as explained in Fig. 2E legend). […] The graphs in panels A-B show representative data of three independent experiments.
as §1

With `C[C@@H]1CCO[C@H]2Cn3cc(C(=O)NCc4ccc(F)cc4F)c(=O)c(O)c3C(=O)N12` [DTG, dolutegravir] the “r value of Fl-DNA (IN-DNA complex) on increasing INSTI concentration” value [1] was “remained constant”, the “DTG binding to DNA alone” value (DNA alone (PFV^CAAT)) was “no DTG binding” and the “DTG-binding (%) Fluorescence anisotropy procedure” value ([2]; DNA#1 (cognate)) was 100%. The “DTG-binding (%) Fluorescence anisotropy procedure” value ([2]; DNA#3) was 96 ± 3%, the “DTG-binding (%) Fluorescence anisotropy procedure” value ([2]; DNA#7) was 42 ± 6% and the “DTG-binding (%) Fluorescence anisotropy procedure” value ([2]; DNA#8) was 8 ± 2%. The “DTG-binding (%) Fluorescence anisotropy procedure” value ([2]; DNA#9 (random sequence)) was 15 ± 3%, the “DTG-binding (%) Fluorescence anisotropy procedure” value ([2]; DNA#11) was 29 ± 3% and the “DTG-binding (%) Fluorescence anisotropy procedure” value ([2]; DNA#12) was 77 ± 4%. The “DTG-binding (%) Fluorescence anisotropy procedure” value ([2]; DNA#13 (processed DNA product)) was 79 ± 5% and the “DTG binding to S217K” value (S217K IN^PFV-DNA complex) was “No binding”.
